These compounds were tested against T1, human Farnesoid X Receptor (FXR) ligand binding domain (GST-FXR LBD) (Homo sapiens, UniProt Q96RI1) (assay: Human GST-FXR LBD co-activator interaction assay (FXR HTRF assay)). Conditions: GST-FXR LBD interaction with biotin-labeled SRC-1 peptide, FRET, response relative to GW4064, read-out: FXR coactivator interaction assay (HTRF).
T1 construct: purchased Invitrogen
T1 sequence (Q96RI1 193-472 isoform Q96RI1-2): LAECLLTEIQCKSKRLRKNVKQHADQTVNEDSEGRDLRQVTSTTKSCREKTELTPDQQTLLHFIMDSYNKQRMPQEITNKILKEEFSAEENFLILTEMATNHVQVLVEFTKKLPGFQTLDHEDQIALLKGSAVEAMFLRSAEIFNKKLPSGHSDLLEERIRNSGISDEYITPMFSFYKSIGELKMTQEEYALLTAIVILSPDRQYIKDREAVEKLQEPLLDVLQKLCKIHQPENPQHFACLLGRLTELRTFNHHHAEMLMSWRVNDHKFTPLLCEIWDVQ
Assay type: biochemical
Source text: Human GST-FXR LBD Co-Activator Interaction Assay
The FXR HTRF assay is a biochemical assay measuring the interaction between FXR and a coactivator protein (SRC1). The ligand-induced interaction with a coactivator protein is a critical step in transcriptional activation by FXR. Thus, this is an assay designed to measure FXR agonist activity of the test compounds.
Recombinant human Farnesoid X Receptor (FXR) ligand binding domain (amino acids 193-472) fused to glutathione S-transferase (GST) purified protein (GST-FXR LBD) was purchased (Invitrogen). The ligand-dependent interaction between GST-FXR LBD and a peptide derived from Steroid Receptor Coactivator-1 (SRC-1) was monitored by Fluorescence Resonance Energy Transfer (FRET). […] Test compounds (in DMSO solution) and detection reagents (anti-GST-Cryptate labeled antibody and Streptavidin-XL665 conjugate; CisBio) were added in assay buffer containing 50 mM KF. Plates are incubated at room temperature in the dark for 2.5 hrs before reading on an Envision (PerkinElmer) at 665 nm and 590 nm. The HTRF assay results were calculated from the 665 nm/590 nm ratio (ratio=(A665 nm/A590 nm)×10^4) and expressed in Delta F %=(Ratiosample−Rationegative)/Rationegative×100.
A negative control (without Streptavidin-XL665) was run with each assay and represented the background fluorescence. A reference FXR agonist, (E)-3-(2-chloro-4-((3-(2,6-dichlorophenyl)-5-isopropylisoxazol-4-yl)methoxy)styryl)benzoic acid (Compound GW4064), was included in each experiment as positive control. The efficacy of each test compound was compared to that of GW4064. At each concentration, the relative activity of the test compound was expressed as Response %=(Rsample−RDMSO)/(Rpositive−RDMSO), where Rsample is the HTRF response (expressed in Delta F %) for the test compound, Rpositive is the maximal response for GW4064 at saturating concentrations, and RDMSO is the response for DMSO control. The EC50 values were calculated using GraphPad Prism (GraphPad Software) using non-linear regression curve fit (log(agonist) vs. response-variable slope (four parameters)).

| Structure (SMILES) | EC50 |
| --- | --- |
| Cn1nc(C(=O)N(CCOc2ccc(C(=O)O)cc2F)Cc2ccccc2F)c2c1-c1cc(F)ccc1OC2 [Compound 61, 3-fluoro-4-(2-(8-fluoro-N-(2-fluorobenzyl)-1-methyl-1,4-dihydrochromeno[4,3-c]pyrazole-3-carboxamido)ethoxy)benzoic Acid] | 89 nM |
| Cn1nc(C(=O)N(CCOc2ccc(C(=O)O)cc2F)Cc2cccc(F)c2)c2c1-c1cc(F)ccc1OC2 [Compound 58, 3-fluoro-4-(2-(8-fluoro-N-(3-fluorobenzyl)-1-methyl-1,4-dihydrochromeno[4,3-c]pyrazole-3-carboxamido)ethoxy)benzoic acid] | 22 nM |
| Cn1nc(C(=O)N(Cc2ccc(C(=O)O)cc2)Cc2ccccc2F)c2c1-c1cc(Cl)ccc1OC2 [Compound 92, 4-((8-chloro-N-(2-fluorobenzyl)-1-methyl-1,4-dihydrochromeno[4,3-c]pyrazole-3-carboxamido)methyl)benzoic acid] | 14 nM |
| Cc1cc(C(=O)O)cc(C)c1OCCN(CC1CCCC1)C(=O)c1nn(C)c2c1COc1ccc(Cl)cc1-2 [Compound 49, 4-(2-(8-chloro-N-(cyclopentylmethyl)-1-methyl-1,4-dihydrochromeno[4,3-c]pyrazole-3-carboxamido)ethoxy)-3,5-dimethylbenzoic acid] | 17 nM |
| Cn1nc(C(=O)N(Cc2ccc(C(=O)O)cc2)Cc2cccc(F)c2F)c2c1-c1cc(Cl)ccc1OC2 [Compound 81, 4-((8-chloro-N-(2,3-difluorobenzyl)-1-methyl-1,4-dihydrochromeno[4,3-c]pyrazole-3-carboxamido)methyl)benzoic acid] | 21 nM |
| Cn1nc(C(=O)N(CCNc2cc(C(=O)O)ccc2F)Cc2ccccc2F)c2c1-c1cc(F)ccc1OC2 [Compound 69, 4-fluoro-3-((2-(8-fluoro-N-(2-fluorobenzyl)-1-methyl-1,4-dihydrochromeno[4,3-c]pyrazole-3-carboxamido)ethyl)amino)benzoic acid] | 25 nM |
| Cn1nc(C(=O)N(CCOc2ccc(C(=O)O)cc2F)Cc2ccccc2F)c2c1-c1cc(F)c(F)cc1OC2 [Compound 62, 4-(2-(7,8-difluoro-N-(2-fluorobenzyl)-1-methyl-1,4-dihydrochromeno[4,3-c]pyrazole-3-carboxamido)ethoxy)-3-fluorobenzoic acid] | 74 nM |
| Cc1cccc(CN(Cc2ccc(C(=O)O)cc2F)C(=O)c2nn(C)c3c2COc2ccc(Cl)cc2-3)c1 [Compound 84, 4-((8-chloro-1-methyl-N-(3-methylbenzyl)-1,4-dihydrochromeno[4,3-c]pyrazole-3-carboxamido)methyl)-3-fluorobenzoic acid] | 18 nM |
| Cn1nc(C(=O)N(CCOc2c(F)cc(C(=O)O)cc2F)Cc2ccccc2F)c2c1-c1cc(Cl)ccc1OC2 [Compound 50, 4-(2-(8-chloro-N-(2-fluorobenzyl)-1-methyl-1,4-dihydrochromeno[4,3-c]pyrazole-3-carboxamido)ethoxy)-3,5-difluorobenzoic acid] | 11 nM |
| Cc1cccc(CN(Cc2ccc(C(=O)O)cc2)C(=O)c2nn(C)c3c2COc2ccc(Cl)cc2-3)c1 [Compound 80, 4-((8-chloro-1-methyl-N-(3-methylbenzyl)-1,4-dihydrochromeno[4,3-c]pyrazole-3-carboxamido)methyl)benzoic acid] | 16 nM |
| Cn1nc(C(=O)N(CCOc2ccc(C(=O)O)cc2)Cc2ccccc2F)c2c1-c1cc(Cl)ccc1OC2 [Compound 45, 4-(2-(8-chloro-N-(2-fluorobenzyl)-1-methyl-1,4-dihydrochromeno[4,3-c]pyrazole-3-carboxamido)ethoxy)benzoic acid] | 15 nM |
| Cn1nc(C(=O)N(Cc2ccccc2)Cc2ccc(C(=O)O)cc2F)c2c1-c1cc(F)ccc1OC2 [Compound 79, 4-((N-benzyl-8-fluoro-1-methyl-1,4-dihydrochromeno[4,3-c]pyrazole-3-carboxamido)methyl)-3-fluorobenzoic acid] | 22 nM |
| Cn1nc(C(=O)N(Cc2ccc(C(=O)O)cc2)Cc2ccc3[nH]ccc3c2)c2c1-c1cc(Cl)ccc1OC2 [Compound 86, 4-((N-((1H-indol-5-yl)methyl)-8-chloro-1-methyl-1,4-dihydrochromeno[4,3-c]pyrazole-3-carboxamido)methyl)benzoic acid] | 12 nM |

Now those with a lower EC50, led by results:

| EC50 | Structure (SMILES) |
| --- | --- |
| 6 nM | Cn1nc(C(=O)N(CCNc2cccc(C(=O)O)c2)Cc2ccccc2F)c2c1-c1cc(Cl)ccc1OC2 [Compound 63, 3-((2-(8-chloro-N-(2-fluorobenzyl)-1-methyl-1,4-dihydrochromeno[4,3-c]pyrazole-3-carboxamido)ethyl)amino)benzoic Acid] |
| 0.7 nM | Cn1nc(C(=O)N(CC(=O)Nc2cccc(C(=O)O)c2)Cc2ccccc2F)c2c1-c1cc(Cl)c(F)cc1OC2 [Compound 25, 3-(2-(8-chloro-7-fluoro-N-(2-fluorobenzyl)-1-methyl-1,4-dihydrochromeno[4,3-c]pyrazole-3-carboxamido)acetamido)benzoic acid] |
| 0.4 nM | Cn1nc(C(=O)N(CC(=O)Nc2cc(C(=O)O)ccc2F)Cc2cccc(F)c2)c2c1-c1cc(F)c(F)cc1OC2 [Compound 18, 3-(2-(7,8-difluoro-N-(3-fluorobenzyl)-1-methyl-1,4-dihydrochromeno[4,3-c]pyrazole-3-carboxamido)acetamido)-4-fluorobenzoic acid] |
| 7 nM | Cn1nc(C(=O)N(CCNc2cc(C(=O)O)ccc2F)Cc2cccc(F)c2)c2c1-c1cc(Cl)ccc1OC2 [Compound 65, 3-((2-(8-chloro-N-(3-fluorobenzyl)-1-methyl-1,4-dihydrochromeno[4,3-c]pyrazole-3-carboxamido)ethyl)amino)-4-fluorobenzoic Acid] |
| 0.77 nM | Cn1nc(C(=O)N(CC(=O)Nc2cccc(C(=O)O)c2)Cc2ccccc2F)c2c1-c1cc(Cl)ccc1OC2 [Compound 35, 3-(2-(8-chloro-N-(2-fluorobenzyl)-1-methyl-1,4-dihydrochromeno[4,3-c]pyrazole-3-carboxamido)acetamido)benzoic Acid] |
| 7.9 nM | Cn1nc(C(=O)N(Cc2ccc(C(=O)O)cc2)Cc2cccc(F)c2)c2c1-c1cc(F)ccc1OC2 [Compound 77, 4-((8-fluoro-N-(3-fluorobenzyl)-1-methyl-1,4-dihydrochromeno[4,3-c]pyrazole-3-carboxamido)methyl)benzoic acid] |
| 0.5 nM | Cn1nc(C(=O)N(CC(=O)Nc2cc(C(=O)O)ccc2F)Cc2ccccc2)c2c1-c1cc(F)c(F)cc1OC2 [Compound 19, 3-(2-(N-benzyl-7,8-difluoro-1-methyl-1,4-dihydrochromeno[4,3-c]pyrazole-3-carboxamido)acetamido)-4-fluorobenzoic acid] |
| 0.84 nM | Cc1cc(Cl)cc2c1OCc1c(C(=O)N(CC(=O)Nc3cccc(C(=O)O)c3)Cc3ccccc3F)nn(C)c1-2 [Compound 14, 3-(2-(8-chloro-N-(2-fluorobenzyl)-1,6-dimethyl-1,4-dihydrochromeno[4,3-c]pyrazole-3-carboxamido)acetamido)benzoic acid] |
| 3.3 nM | Cn1nc(C(=O)N(CC(=O)Nc2cccc(C(=O)O)c2)Cc2ccccc2F)c2c1-c1ccc(F)cc1OC2 [Compound 8, 3-(2-(7-fluoro-N-(2-fluorobenzyl)-1-methyl-1,4-dihydrochromeno[4,3-c]pyrazole-3-carboxamido)acetamido)benzoic acid] |

Source: patent US11021446B2 (NOVARTIS AG, priority 2013, dated 2021)
